According to ChEMBL document CHEMBL1156285, “Stereochemistry-activity relationship of orally active tetralin S1P agonist prodrugs” (Bioorg Med Chem Lett, 2010):
pEC50: −log10 of the molar value. Active and inactive are the calls of the source. The rule behind the calls is not given here.

How the values were obtained:
Mus musculus [1] = test: Vd in mouse at 1 mg/kg after 1 week; details: in vivo, 168 h
[2] = Clearance in mouse at 1 mg/kg after 1 week; assay type: ADME, organism-based; parameters: dose 1 mg/kg; details: in vivo
Mus musculus [3] = test: Oral bioavailability in mouse at 1 mg/kg after 1 week; assay type: ADME, organism-based; details: in vivo, 168 h
Mus musculus [4] = test: Half life in mouse at 1 mg/kg after 1 week; assay type: ADME, organism-based; parameters: dose 1 mg/kg; details: in vivo, 168 h
[5] = molecular target: T1, Sphingosine kinase 2 (Homo sapiens) (UniProt Q9NRA0); test: Induction of human SphK2 phosphorylation; parameters: concentration or dose not given beside the values
T1 sequence (whole entry): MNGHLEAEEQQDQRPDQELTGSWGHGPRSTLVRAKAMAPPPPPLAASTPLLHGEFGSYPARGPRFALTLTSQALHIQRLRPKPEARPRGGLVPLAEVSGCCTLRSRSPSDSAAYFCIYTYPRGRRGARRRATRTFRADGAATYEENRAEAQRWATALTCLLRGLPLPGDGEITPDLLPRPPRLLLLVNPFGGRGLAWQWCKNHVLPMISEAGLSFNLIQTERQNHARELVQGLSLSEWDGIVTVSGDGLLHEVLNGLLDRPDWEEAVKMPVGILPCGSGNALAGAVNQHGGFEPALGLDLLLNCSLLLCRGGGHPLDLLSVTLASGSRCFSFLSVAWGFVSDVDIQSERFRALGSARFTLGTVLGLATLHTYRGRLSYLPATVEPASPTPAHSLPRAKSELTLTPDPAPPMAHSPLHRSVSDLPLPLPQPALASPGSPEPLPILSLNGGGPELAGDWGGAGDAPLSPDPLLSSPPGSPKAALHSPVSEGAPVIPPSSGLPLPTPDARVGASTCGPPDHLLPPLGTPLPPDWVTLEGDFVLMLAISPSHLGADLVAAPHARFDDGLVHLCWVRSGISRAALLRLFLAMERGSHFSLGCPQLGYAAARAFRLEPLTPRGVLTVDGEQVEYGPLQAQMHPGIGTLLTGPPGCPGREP

Mus musculus [6] = organism: Mus musculus; test: Immunosuppressive activity in mouse assessed as induction of […]; assay type: functional
[7] = molecular target: T2, Sphingosine kinase 2 (Mus musculus) (UniProt Q9JIA7); test: Induction of mouse SphK2 phosphorylation
T2 sequence (whole entry): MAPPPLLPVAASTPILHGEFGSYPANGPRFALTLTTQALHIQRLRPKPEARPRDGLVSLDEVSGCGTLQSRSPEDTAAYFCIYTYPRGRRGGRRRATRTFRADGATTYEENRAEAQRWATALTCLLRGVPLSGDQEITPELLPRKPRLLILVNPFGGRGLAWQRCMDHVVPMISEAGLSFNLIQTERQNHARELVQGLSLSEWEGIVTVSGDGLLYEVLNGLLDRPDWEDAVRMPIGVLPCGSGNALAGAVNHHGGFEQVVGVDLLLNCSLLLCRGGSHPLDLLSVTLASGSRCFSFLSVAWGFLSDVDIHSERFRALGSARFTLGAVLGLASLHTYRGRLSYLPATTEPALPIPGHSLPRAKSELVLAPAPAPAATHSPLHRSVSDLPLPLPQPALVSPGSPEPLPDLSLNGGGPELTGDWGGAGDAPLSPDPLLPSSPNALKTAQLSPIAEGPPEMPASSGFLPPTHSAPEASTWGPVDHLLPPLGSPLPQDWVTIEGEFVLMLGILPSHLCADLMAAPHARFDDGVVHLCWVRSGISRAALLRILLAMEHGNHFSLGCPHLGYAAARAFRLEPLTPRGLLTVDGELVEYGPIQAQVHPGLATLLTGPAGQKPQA

Mus musculus [8] = test: Immunosuppressive activity in mouse assessed as induction of lymphopenia at 1 mg/kg after 1 week; assay type: functional, organism-based; parameters: dose 1 mg/kg
Mus musculus [9] = organism: Mus musculus; test: Immunosuppressive activity in mouse assessed as induction of lymphopenia; assay type: functional
[10] = molecular target: T3, Sphingosine 1-phosphate receptor 1 (Homo sapiens, UniProt P21453); test: Agonist activity at human S1P1 receptor assessed as effect on calcium mobilization by Gi dependent whole cell assay; assay type: functional
T3 sequence (P21453 whole entry): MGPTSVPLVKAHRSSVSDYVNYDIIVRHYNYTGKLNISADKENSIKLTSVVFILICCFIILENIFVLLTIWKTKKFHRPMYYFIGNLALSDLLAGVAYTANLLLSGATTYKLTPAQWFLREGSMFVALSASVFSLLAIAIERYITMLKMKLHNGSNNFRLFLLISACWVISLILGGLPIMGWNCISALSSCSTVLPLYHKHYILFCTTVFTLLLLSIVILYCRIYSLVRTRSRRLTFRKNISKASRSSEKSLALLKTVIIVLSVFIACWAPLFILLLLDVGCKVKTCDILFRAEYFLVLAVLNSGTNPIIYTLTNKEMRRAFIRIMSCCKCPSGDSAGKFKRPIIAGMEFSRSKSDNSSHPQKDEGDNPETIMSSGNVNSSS

[11] = molecular target: T4, Sphingosine 1-phosphate receptor 3 (Homo sapiens, UniProt Q99500); test: Agonist activity at human S1P3 receptor assessed as effect on calcium mobilization by Gi dependent whole cell assay; assay type: functional
T4 sequence (Q99500 whole entry): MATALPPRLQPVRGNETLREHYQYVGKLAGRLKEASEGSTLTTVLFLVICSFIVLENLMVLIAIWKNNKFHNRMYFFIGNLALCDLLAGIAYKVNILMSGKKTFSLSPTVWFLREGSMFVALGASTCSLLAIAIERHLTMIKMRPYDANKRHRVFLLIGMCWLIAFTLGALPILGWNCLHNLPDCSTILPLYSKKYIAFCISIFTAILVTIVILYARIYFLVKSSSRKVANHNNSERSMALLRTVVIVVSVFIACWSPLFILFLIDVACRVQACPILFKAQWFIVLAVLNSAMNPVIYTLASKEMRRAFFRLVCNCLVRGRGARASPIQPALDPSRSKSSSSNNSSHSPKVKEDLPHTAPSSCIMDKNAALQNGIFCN

Mus musculus [12] = test: Immunosuppressive activity in mouse assessed as induction of lymphopenia at 2 mg/kg after 72 hrs; assay type: functional, organism-based; parameters: dose 2 mg/kg
Mus musculus [13] = test: Oral bioavailability in mouse at 2 mg/kg after 72 hrs; assay type: ADME, organism-based; details: in vivo
Mus musculus [14] = test: Half life in mouse at 2 mg/kg after 72 hrs; assay type: ADME, organism-based; parameters: dose 2 mg/kg; details: in vivo
[15] = molecular target: T3, Sphingosine 1-phosphate receptor 1; test: Agonist activity at human S1P1 receptor assessed as effect on calcium mobilization by Gq dependent whole cell assay; assay type: functional
[16] = molecular target: T4, Sphingosine 1-phosphate receptor 3; test: Agonist activity at human S1P3 receptor assessed as effect on calcium mobilization by Gq dependent whole cell assay; assay type: functional
[17] = molecular target: Sphingosine 1-phosphate receptor 5 (Homo sapiens, UniProt Q9H228); test: Agonist activity at human S1P5 receptor assessed as effect on calcium mobilization by Gq dependent whole cell assay; assay type: functional
Sphingosine 1-phosphate receptor 5, sequence (Q9H228 whole entry): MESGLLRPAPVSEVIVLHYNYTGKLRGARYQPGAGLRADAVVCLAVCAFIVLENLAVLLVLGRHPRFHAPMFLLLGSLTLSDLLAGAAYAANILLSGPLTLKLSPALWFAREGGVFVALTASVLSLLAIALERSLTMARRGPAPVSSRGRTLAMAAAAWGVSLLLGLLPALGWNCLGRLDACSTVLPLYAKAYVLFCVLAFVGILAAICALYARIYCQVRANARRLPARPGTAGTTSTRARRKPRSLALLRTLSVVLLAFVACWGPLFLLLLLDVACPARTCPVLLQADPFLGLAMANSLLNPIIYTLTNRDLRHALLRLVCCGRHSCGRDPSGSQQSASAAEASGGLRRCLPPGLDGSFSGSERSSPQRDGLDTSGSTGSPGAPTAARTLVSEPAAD

[18] = molecular target: T5, Sphingosine 1-phosphate receptor 4 (Homo sapiens, UniProt O95977); test: Agonist activity at human S1P4 receptor assessed as effect on calcium mobilization by Gq dependent whole cell assay; assay type: functional
T5 sequence (O95977 whole entry): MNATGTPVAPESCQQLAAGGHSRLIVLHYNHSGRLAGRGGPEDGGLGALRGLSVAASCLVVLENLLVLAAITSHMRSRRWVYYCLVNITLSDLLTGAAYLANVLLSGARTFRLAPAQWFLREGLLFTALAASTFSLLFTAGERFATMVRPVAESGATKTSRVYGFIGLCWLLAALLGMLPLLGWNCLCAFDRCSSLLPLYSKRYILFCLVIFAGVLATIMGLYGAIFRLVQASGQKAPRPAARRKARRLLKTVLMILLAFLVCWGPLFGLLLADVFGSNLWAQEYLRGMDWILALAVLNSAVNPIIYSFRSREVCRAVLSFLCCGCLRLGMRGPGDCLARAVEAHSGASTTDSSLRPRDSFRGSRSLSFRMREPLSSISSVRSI

[19] = molecular target: Sphingosine 1-phosphate receptor 2 (Homo sapiens, UniProt O95136); test: Agonist activity at human S1P2 receptor assessed as effect on calcium mobilization by Gq dependent whole cell assay; assay type: functional
Sphingosine 1-phosphate receptor 2, sequence (O95136 whole entry): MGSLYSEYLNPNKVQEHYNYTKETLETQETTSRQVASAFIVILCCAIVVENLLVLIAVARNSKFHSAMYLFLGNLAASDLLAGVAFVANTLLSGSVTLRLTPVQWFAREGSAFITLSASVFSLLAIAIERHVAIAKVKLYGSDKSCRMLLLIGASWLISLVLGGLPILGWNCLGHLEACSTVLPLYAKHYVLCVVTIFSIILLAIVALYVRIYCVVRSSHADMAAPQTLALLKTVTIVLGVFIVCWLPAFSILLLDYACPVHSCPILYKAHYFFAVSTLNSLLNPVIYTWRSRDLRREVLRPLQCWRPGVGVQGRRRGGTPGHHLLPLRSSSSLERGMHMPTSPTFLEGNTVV

SMILES	Activity [5]	pEC50 [10]	pEC50 [11]	pEC50 [15]	pEC50 [16]	pEC50 [18]	ED50 (Mus musculus [9])	further results
CCCCCCCCc1ccc2c(c1)CC[C@@H]([C@](C)(N)COP(=O)(O)O)C2	–	7.71	< 5.30	–	–	–	–	–
CCCCCCCCc1ccc2c(c1)CC[C@@H](C(N)(CO)COP(=O)(O)O)C2 (stereo in doubt)	–	9.46	< 5.30	6.88	7.59	7.38	–	pEC50 [17]: 7.48; pEC50 [19]: < 5.30
CCCCCCCCc1ccc2c(c1)CC[C@@H]([C@@](C)(N)CO)C2	38%	–	–	–	–	–	0.8 mg/kg	–
CCCCCCCCCCCCC/C=C/[C@@H](O)[C@@H](N)COP(=O)(O)O	–	10.57	9.35	–	–	–	–	–
CCCCCCCCc1ccc(CC[C@](N)(CO)COP(=O)(O)O)cc1 [FTY720-P]	–	–	–	–	–	7.65	–	–
CCCCCCCCc1ccc2c(c1)CC[C@@H](C(N)(CO)COP(=O)(O)O)C2 (single isomer, unassigned; isomer 1)	–	10.11	9.67	8.71	7.73	8.27	–	pEC50 [17]: 9.48; pEC50 [19]: < 5.30
CCCCCCCCc1ccc(CC[C@@](N)(CO)COP(=O)(O)O)cc1	–	–	–	–	–	6.86	–	–

The next lines start with results.

Activity [5]	pEC50 [10]	pEC50 [11]	pEC50 [15]	pEC50 [16]	pEC50 [18]	SMILES	ED50 (Mus musculus [9])	further results
77%	–	–	–	–	–	CCCCCCCCc1ccc2c(c1)CC[C@H]([C@@](C)(N)CO)C2	0.1 mg/kg	Vd (Mus musculus [1]): 16 L/kg; clearance [2]: 5.5 mL/min/kg; F (Mus musculus [3]): 55%; t1/2 (Mus musculus [4]): 36 h; Activity (Mus musculus [6]): 63%; Activity [7]: 90%; Activity (Mus musculus [8]): Active
9%	–	–	–	–	–	CCCCCCCCc1ccc2c(c1)CC[C@@H](C(N)(CO)CO)C2	0.2 mg/kg	Activity (Mus musculus [12]): Active; F (Mus musculus [13]): 55%; Activity (Mus musculus [6]): 3%; Activity [7]: 4%; t1/2 (Mus musculus [14]): 16 h
0%	–	–	–	–	–	CCCCCCCCc1ccc2c(c1)CC[C@H]([C@](C)(N)CO)C2	> 5 mg/kg	–
3%	–	–	–	–	–	CCCCCCCCc1ccc2c(c1)CC[C@H](C(N)(CO)CO)C2	3.8 mg/kg	–
76%	–	–	–	–	–	CCCCCCCCc1ccc(CCC(N)(CO)CO)cc1 [FINGOLIMOD]	0.03 mg/kg	Activity [7]: 87%
–	7.86	< 5.30	< 5.30	6.04	–	CCCCCCCCc1ccc2c(c1)CC[C@H]([C@](C)(N)COP(=O)(O)O)C2	–	–
–	10.74	9.54	8.75	7.01	7.80	CCCCCCCCc1ccc2c(c1)CC[C@H]([C@@](C)(N)COP(=O)(O)O)C2	–	pEC50 [17]: 8.83; pEC50 [19]: < 5.30
–	10.06	9.82	8.25	7.42	–	CCCCCCCCc1ccc2c(c1)CC[C@@H]([C@@](C)(N)COP(=O)(O)O)C2	–	–
0%	–	–	–	–	–	CCCCCCCCc1ccc2c(c1)CC[C@@H]([C@](C)(N)CO)C2	–	–
